10 compounds from patent publication US20250136606A1, “MODULATORS OF TRPML, THEIR COMPOSITIONS AND METHODS OF USE” (Caraway Therapeutics, Inc., priority 2021, published 2025) can be followed below.

What all share (assay type): cell-based
In one test the target is TRPML1 (Homo sapiens, UniProt Q9GZU1). The experiment in a line: Fluorescent TRPML1 assay (Fluo4-AM calcium fluorescence in doxycycline-induced HEK-293 Trex cells). Put shortly:
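HEK-293 Trex cells stably expressing surface-directed mutant human TRPML1, induced with 0.5 µg/mL doxycycline overnight, were loaded with 1 µM Fluo4-AM and added to compound (6 nM–20 µM final, half-log steps, triplicate) in Ringer's with 10 mM calcium. Fluorescence ex 480/em 540; EC50 by non-linear regression versus plate controls.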

The target in a further test is T1, TRPML2 (Homo sapiens, UniProt Q8IZK6).
T1 construct: expressed in transfected cells
T1 sequence (Q8IZK6 1-566): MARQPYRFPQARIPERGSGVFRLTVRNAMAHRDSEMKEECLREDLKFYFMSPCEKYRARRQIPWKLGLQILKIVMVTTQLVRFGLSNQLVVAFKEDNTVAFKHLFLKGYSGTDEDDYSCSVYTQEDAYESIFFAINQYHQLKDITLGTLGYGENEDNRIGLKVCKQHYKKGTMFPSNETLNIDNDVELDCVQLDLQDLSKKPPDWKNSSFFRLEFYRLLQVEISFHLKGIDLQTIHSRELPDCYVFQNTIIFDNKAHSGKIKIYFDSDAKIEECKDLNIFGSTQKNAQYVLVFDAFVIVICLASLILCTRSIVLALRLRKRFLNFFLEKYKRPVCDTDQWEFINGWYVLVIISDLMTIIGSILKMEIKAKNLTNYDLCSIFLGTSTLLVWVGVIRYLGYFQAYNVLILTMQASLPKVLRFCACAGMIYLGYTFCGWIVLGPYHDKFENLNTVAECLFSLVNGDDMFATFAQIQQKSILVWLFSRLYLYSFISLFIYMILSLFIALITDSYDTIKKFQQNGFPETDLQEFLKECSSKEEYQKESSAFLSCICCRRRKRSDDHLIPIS
The experiment in a line: Fluorescent TRPML2 assay (performed as for TRPML1, substituting the TRPML2 subtype). A digest of the protocol:
(§1)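 Agonist activity is scored as percent of plate controls from Fluo4 fluorescence after dye-loaded, doxycycline-induced HEK-293 Trex cells meet compound in high-calcium (10 mM) Ringer's. Compounds run in half-log dilutions from 20 micromolar final, in triplicate.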

A further test has as its target T2, TRPML3 (Homo sapiens, UniProt Q8TDD5).
T2 construct: expressed in transfected cells
T2 sequence (Q8TDD5 1-553): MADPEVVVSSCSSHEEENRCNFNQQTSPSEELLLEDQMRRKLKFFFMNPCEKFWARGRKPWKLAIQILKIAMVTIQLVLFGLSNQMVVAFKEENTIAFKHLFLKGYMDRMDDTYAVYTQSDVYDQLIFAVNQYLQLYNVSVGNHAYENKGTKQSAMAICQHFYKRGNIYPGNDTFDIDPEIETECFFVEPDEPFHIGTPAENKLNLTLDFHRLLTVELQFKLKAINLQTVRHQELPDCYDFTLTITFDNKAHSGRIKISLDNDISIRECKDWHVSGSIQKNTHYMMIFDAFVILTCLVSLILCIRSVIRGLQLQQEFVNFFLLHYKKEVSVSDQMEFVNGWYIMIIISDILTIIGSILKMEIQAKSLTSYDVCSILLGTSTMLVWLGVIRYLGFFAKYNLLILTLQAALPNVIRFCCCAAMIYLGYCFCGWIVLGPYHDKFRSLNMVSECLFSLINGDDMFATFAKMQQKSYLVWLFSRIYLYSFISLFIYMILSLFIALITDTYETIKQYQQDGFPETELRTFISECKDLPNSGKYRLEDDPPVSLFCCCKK
The experiment in a line: Fluorescent TRPML3 assay (performed as for TRPML1, substituting the TRPML3 subtype). A digest of the protocol:
as §1

Read-outs that look alike come from different tables or passages of the source.

TRPML1, sequence (Q9GZU1 whole entry L15A/L16A/L577A/L578A, form open): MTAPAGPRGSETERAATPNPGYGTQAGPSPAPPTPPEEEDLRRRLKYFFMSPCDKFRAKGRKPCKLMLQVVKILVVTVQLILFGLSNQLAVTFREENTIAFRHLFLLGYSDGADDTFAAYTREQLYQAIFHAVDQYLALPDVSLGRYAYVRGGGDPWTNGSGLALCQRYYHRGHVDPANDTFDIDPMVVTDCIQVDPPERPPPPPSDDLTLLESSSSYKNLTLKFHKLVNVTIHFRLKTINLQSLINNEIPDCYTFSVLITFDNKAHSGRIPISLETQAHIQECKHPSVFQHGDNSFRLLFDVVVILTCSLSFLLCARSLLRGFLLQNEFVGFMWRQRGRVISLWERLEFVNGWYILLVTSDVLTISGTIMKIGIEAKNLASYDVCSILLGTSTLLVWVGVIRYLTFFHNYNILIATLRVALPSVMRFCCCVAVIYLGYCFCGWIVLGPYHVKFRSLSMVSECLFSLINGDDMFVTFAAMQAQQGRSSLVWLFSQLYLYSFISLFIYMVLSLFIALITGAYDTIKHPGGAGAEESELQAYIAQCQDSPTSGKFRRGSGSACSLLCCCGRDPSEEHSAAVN

Broadly, the EC50 is the concentration needed to bring the measured effect to its halfway point. `Cc1cn(-c2cc(C#N)ccn2)c2ccnc(N3C[C@@H](C)N(C(=O)OC(C)(C)C)C[C@@H]3C)c12` [Compound 705, tert-butyl (2R,5S)-4-(1-(4-cyanopyridin-2-yl)-3-methyl-1H-pyrrolo[3,2-c]pyridin-4-yl)-2,5-dimethylpiperazine-1-carboxylate]: the concentration giving a half-maximal response (EC50) is < 100 nM at TRPML1, 500 to 2000 nM on TRPML2 and < 100 nM at TRPML3.
For `Cc1ccnc(-n2cc(-c3ccccc3F)c3c(N4C[C@@H](C)N(C(=O)OC(C)(C)C)C[C@@H]4C)ncnc32)c1` [Compound 136, tert-butyl (2R,5S)-4-(5-(2-fluorophenyl)-7-(4-methylpyridin-2-yl)-7H-pyrrolo[2,3-d]pyrimidin-4-yl)-2,5-dimethylpiperazine-1-carboxylate], the 50% effective concentration (EC50) at TRPML1 (fluorescent calcium assay), on TRPML2 (fluorescent calcium assay) and on TRPML3 (fluorescent calcium assay) was < 100 nM throughout.
In the case of `CCCN(C)c1cn(-c2cc(C#N)ccn2)c2ncnc(N3C[C@@H](C)N(C(=O)OC(C)(C)C)C[C@@H]3C)c12` [Compound 499, tert-butyl (2R,5S)-4-(7-(4-cyanopyridin-2-yl)-5-(methyl(propyl)amino)-7H-pyrrolo[2,3-d]pyrimidin-4-yl)-2,5-dimethylpiperazine-1-carboxylate], the EC50 on TRPML1 is < 100 nM; on TRPML2 it was 100 to 500 nM; on TRPML3, < 100 nM.
For `C[C@@H]1CN(c2nccc3c2c(C(F)(F)F)cn3-c2cc(C#N)ccn2)[C@@H](C)CN1C(=O)OC(C)(C)C` [Compound 620, tert-butyl (2R,5S)-4-(1-(4-cyanopyridin-2-yl)-3-(trifluoromethyl)-1H-pyrrolo[3,2-c]pyridin-4-yl)-2,5-dimethylpiperazine-1-carboxylate], the half-maximal effective concentration (EC50) was < 100 nM on TRPML1, 100 to 500 nM at TRPML2 and < 100 nM at TRPML3.
On to `C[C@H]1CN(C(=O)OC(C)(C)C)CCN1c1ncnc2c1c(C1CC1)nn2-c1cc(C#N)ccn1` [Compound 343], for which the EC50 on TRPML1 (fluorescent calcium assay) is 500 to 2000 nM; on TRPML2 (fluorescent calcium assay), > 2000 nM; on TRPML3 (fluorescent calcium assay) it was 100 to 500 nM.
Taken in the same sequence, the figures for `C[C@H]1CN(C(=O)OC(C)(C)C)CCN1c1ncnc2c1c(N1CCOCC1)cn2-c1cc(F)cc(F)c1` [Compound 228, tert-Butyl (S)-4-(7-(3,5-difluorophenyl)-5-morpholino-7H-pyrrolo[2,3-d]pyrimidin-4-yl)-3-methylpiperazine-1-carboxylate] were 100 to 500 nM, 500 to 2000 nM and 100 to 500 nM.
For `Cc1ccc(Cl)cc1-n1cc(N2CCCC2)c2c(N3CCN(C(=O)OC(C)(C)C)C[C@@H]3C)ncnc21` [Compound 306, tert-butyl (S)-4-(7-(5-chloro-2-methylphenyl)-5-(pyrrolidin-1-yl)-7H-pyrrolo[2,3-d]pyrimidin-4-yl)-3-methylpiperazine-1-carboxylate] the same measures were 500 to 2000 nM, 500 to 2000 nM and 100 to 500 nM.
Take `Cc1nc(-n2cc(-c3ccccc3F)c3c(N4CCN(C(=O)OC(C)(C)C)C[C@@H]4C)ncnc32)sc1C#N` [Compound 463, tert-butyl (S)-4-(7-(5-cyano-4-methylthiazol-2-yl)-5-(2-fluorophenyl)-7H-pyrrolo[2,3-d]pyrimidin-4-yl)-3-methylpiperazine-1-carboxylate]: the concentration for a half-maximal effect (EC50) on TRPML1 (fluorescent calcium assay), at TRPML2 (fluorescent calcium assay) and on TRPML3 (fluorescent calcium assay) was < 100 nM in each case.
`CC(C)(C)OC(=O)N1CCN(c2ncnc3c2c(C2CC2)cn3-c2cc(C#N)ccn2)[C@H]2C[C@H]21` (single isomer, unassigned) [Compound 409]: the values for the EC50 at TRPML1 (fluorescent calcium assay), at TRPML2 (fluorescent calcium assay) and on TRPML3 (fluorescent calcium assay) were < 100 nM, 100 to 500 nM and < 100 nM, respectively.
In the case of `Cc1cncc(-n2cc(C3CC3)c3c(N4CCN(C(=O)OC(C)(C)C)CC4)ncnc32)c1` [Compound 149, tert-butyl 4-(5-cyclopropyl-7-(5-methylpyridin-3-yl)-7H-pyrrolo[2,3-d]pyrimidin-4-yl)piperazine-1-carboxylate], the values for the EC50 on TRPML1 (fluorescent calcium assay), on TRPML2 (fluorescent calcium assay) and at TRPML3 (fluorescent calcium assay) were 100 to 500 nM, 500 to 2000 nM and 100 to 500 nM, respectively.
